Assay results: patent publication EP2802310B1, “NEW USE OF ZERUMBONE AND COMPOSITIONS COMPRISING ZERUMBONE” (Sederma, priority 2012, dated 2013)
Read-outs that look alike come from different tables or passages of the source.

Experiments:
[1] = test system: Murine 3T3-L1 fibroblasts; assay: Anti-differentiating effect on adipocytes, intracellular G3PDH activity, 3T3-L1 line; format: cell-based
Protocol: Murine 3T3-L1 fibroblasts were seeded and induced to differentiate into adipocytes for 6 days with specific inducers in the presence of the evaluated products. When mature adipocytes were obtained, layers were crushed and intracellular G3PDH ([…]) activity is measured. A cell quantification test (Hoechst) on the same extracts complements the assay.

Human preadipocytes = assay: Triglyceride content after preadipocyte differentiation (glycerol released after lipase); format: cell-based; conditions: 10 days
Protocol: Human preadipocytes were plated and induced to differentiate at confluence in the presence of a cocktail of specific inducers and evaluated products. After 10 days, the triglyceride content of the culture was estimated by measuring the released glycerol after the action of a lipase.

Mature human adipocytes [2] = assay: Lipolytic effect, daily titration of released glycerol over 3 days; format: cell-based; conditions: Homo sapiens, Adipocyte, Zerumbone 6ppm, read-out: released glycerol, versus negative control
Protocol: (§1) Mature human adipocytes were treated with zerumbone to evaluate daily for 3 days. A daily titration of the released glycerol, reflecting lipolysis, was measured in the medium, before the media were changed in order to monitor the long-term effect.
In a second test, mature human adipocytes were treated with the product to evaluate daily for 3 days. A daily titration of the released glycerol was performed in the media, just before changing of the media in order to monitor the long term effect. Table 19: Comparison of the lipolytic effect of caffeine, zerumbone and of a mixture of caffeine and zerumbone on hypertrophied adipocytes in monolayer (n=4) at short and long term.

Mature human adipocytes [3] = assay: Lipolytic effect, released glycerol after 3 hours; format: cell-based; conditions: Adipocyte, Zerumbone 6ppm, contact time 3h, read-out: released glycerol, versus negative control
Protocol: In a first test, mature human adipocytes were treated with the product to evaluate for 3 hours, then titration of the released glycerol, reflecting lipolysis, was measured in the medium.

mature adipocytes = assay: Intracellular triglyceride quantity in mature adipocytes; format: cell-based, human; conditions: Zerumbone 6ppm
Protocol: as §1
Table 5: comparison of the intracellula triglyceride quantity found in mature adipocytes
Table 20: Comparison of the intracellular triglyceride content found in the mature adipocytes; compared effect of zerumbone, caffeine and of a mixture of zerumbone and caffeine.

adiponectin = assay: Adiponectin synthesis by ELISA, 3 days contact; format: cell-based, Human
Protocol: Human preadipocytes were plated and induced to differentiate at confluence in the presence of a cocktail of specific inducers. After 10 days of differentiation, the cells are purged from inducers in their basis medium and left in contact with the products for 3 days in this medium. After contact, the supernatants were collected and the adiponectin amount was measured by ELISA.

HO-1 = HO-1 synthesis by ELISA in adipocyte lysates; format: cell-based, Human; conditions: for activation at 3 ppm / activation at 5 ppm: Homo sapiens, Adipocyte, read-out: [HO-1] % Var / control
Protocol: HO-1 enzymes catalyse the degradation of heme into biliverdin, iron, and carbon monoxide. Its overexpression is associated with a decrease in the size of adipocytes in adipose tissue, an increase of adiponectin secretion and a decrease of IL-6 and TNF secretion and is associated with weight loss.
Human preadipocytes were seeded and induced to differentiate at confluence in the presence of a cocktail of specific inducers and the products to evaluate. After 10 days, the layers were crushed and the HO-1 content was measured in these lysates by ELISA. Furthermore after 10 days of differentiation, matiure adipocytes were placed in contact with the products for 48h and the HO-1 content was also measured in the cellular lysates. In parallel, an estimation of the cell quantification is realized on these two assays (Hoechst test).

IL6 = IL6 synthesis by ELISA in adipocyte supernatants; format: cell-based; conditions: Homo sapiens
Protocol: Human preadipocytes were seeded and induced to differentiate in the presence of a cocktail of specific inducers and the evaluated products. At the end of differentiation (at 7 and 10 days), the IL6 content synthetized by the adipocytes is measured in the culture supernatants by ELISA method. Furthermore, after 10 days of differentiation, mature adipocytes are placed in contact of the products during 72h and the IL6 content is also measured in the cellular supernatants. In parallel, survival estimation was realized on these two assays (Hoechst tests).

elastin [4] = assay: Elastin fibres in skin explants under NO stress (Verhoeff stain); conditions: 18 ppm
Protocol: Principle: Explants (person, abdominal skin) received a topical cream containing the product of the invention (cream according to above example 1 at 18ppm of zerumbone) or a placebo cream (same cream without zerumbone) for two days. At the same time, the culture medium received 18ppm of zerumbone in a liquid form (or its excipient) to potentiate the effects. A NO stress was later applied for 24 hours using an NO donor (NOC-5) integrated in the culture medium. Finally, the product was again applied on the explants and in the culture medium for two days.
Counting was done using photos (50 photos/case) by filtering the colours.

elastin [5] = assay: Elastin synthesis in fibroblasts under NO stress, ELISA; format: cell-based; conditions: Homo sapiens, Fibroblast, NHF, compared to the control case following the same NO, read-out: protection of elastin synthesis
Fibromodulin = Fibromodulin synthesis in NHF, ELISA; format: cell-based, human; conditions: two days
Protocol: Principle: NHFs were put into contact with the product of the invention for two days (fibromodulin) or three days (dermatopontin). The supernatants were then assayed using ELISA tests. At the same time, the number of cells was quantified using the Hoechst method.

elastase = assay: Dermal destruction by proteases in skin explants, elastase; conditions: 18ppm of zerumbone co-injected with the protease; five days at 37°C; confocal microscope
Protocol: Principle: Once prepared, skin explants (person, abdominal skin) received an injection of elastase or collagenase that could proteolyse 30 µmol/min of elastin or collagen. In another case, the invention product (titrated at 18ppm of zerumbone) was co-injected with the protease to assess its ability to inhibit the proteolysis of constituents of the dermis, and thus of protection of the dermis. After five days of incubation at 37°C, the result was observed through a confocal microscope and compared to what was obtained in the case without protease at the same depth (60 µm).

[6] = 72 h, adipocytes after differenciation (3days), read-out: IL6 % Var / control

For C/C1=C\CC(C)(C)/C=C/C(=O)/C(C)=C/CC1 [Zerumbone, 2E, 6E, 9E-Humulatrien-8-one], the “[G3PDH]” value ([1]; 1ppm, differentiation for 6 days) was 304.2 +/- 9.9 mU/ 10^6 cell, the cytotoxicity ([1]; 3T3-L1, tested doses) was “without apparent cytotoxicity” and the “[G3PDH]” value ([1]; 3ppm, differentiation for 6 days) was 79.3 +/- 43.6 mU/ 10^6 cell. For the same compound, the “differentiation of 3T3-L1” value ([1]; 5ppm) was “total inhibition”, the “[G3PDH]” value ([1]; 5ppm, differentiation for 6 days) was 3.4+/-10.3 mU/ 10^6 cell and the inhibition at 1 ppm ([1]; Mus musculus, 3T3-L1, 144 h, 1ppm, differentiation for 6 days, read-out: [G3PDH] % Var / control) was 53%. For the same compound, the inhibition at 3 ppm ([1]; Mus musculus, 3T3-L1, 144 h, 3ppm, differentiation for 6 days, read-out: [G3PDH] % Var / control) was 88%, the inhibition at 5 ppm ([1]; Mus musculus, 3T3-L1, 144 h, 5ppm, differentiation for 6 days, read-out: [G3PDH] % Var / control) was 99% and the “[TG]” value (Human preadipocytes; 3ppm) was 3562 +/- 233 µ U/ 10^6 cell. The “[TG]” value (Human preadipocytes; 5ppm) was 2966 +/- 128 µ U/ 10^6 cell, the inhibition at 3 ppm (Human preadipocytes; Homo sapiens, 240 h, 3ppm, read-out: [TG] % Var / control) was 15% and the inhibition at 5 ppm (Human preadipocytes; Homo sapiens, 240 h, 5ppm, read-out: [TG] % Var / control) was 29%. It also gave an activation at 6 ppm (Mature human adipocytes [2]; 24 h, contact time 1 day) of 72%, an activation at 6 ppm (Mature human adipocytes [2]; 48 h, contact time 2 days) of 141% and an activation at 6 ppm (Mature human adipocytes [2]; 72 h, contact time 3 days) of 246%. It also gave an activation at 6 ppm (Mature human adipocytes [3]) of 0%, an inhibition at 6 ppm (mature adipocytes; Homo sapiens, Adipocyte, 72 h, read-out: Triglycerides Variation (%)) of 37% and a Triglycerides (mature adipocytes) of 4947 ± 236 µM/10^6cell. The “Triglycerides Variation (%)” value (mature adipocytes; 4320 min) was -37%; p<0.01, the “[Adiponectin]” value (adiponectin; 2ppm) was 221.4 +/- 24.5 ng/10^E6 cell and the “[Adiponectin]” value (adiponectin; 6ppm) was 19.0 +/- 0.6 ng/10^E6 cell. The activation at 2 ppm (adiponectin; Homo sapiens, 72 h, 2ppm, read-out: [Adiponectin] % Var / control) was 45%, the activation at 6 ppm (adiponectin; Homo sapiens, 72 h, 6ppm, read-out: [Adiponectin] % Var / control) was 95% and the “[HO-1]” value (HO-1; 3ppm, adipocytes in the course of differenciation (10days)) was 51658 +/- 7985 ng/ 10^6 cell. The “[HO-1]” value (HO-1; 3ppm, mature adipocytes (48h)) was 70229 +/- 10638 ng/ 10^6 cell, the “[HO-1]” value (HO-1; 5ppm, adipocytes in the course of differenciation (10days)) was 67243 +/- 11428 ng/ 10^6 cell and the “[HO-1]” value (HO-1; 5ppm, mature adipocytes (48h)) was 96700 +/- 4548 ng/ 10^6 cell. It also gave an activation at 3 ppm (HO-1; 240 h, 3ppm, adipocytes in the course of differenciation (10days)) of 29%, an activation at 5 ppm (HO-1; 240 h, 5ppm, adipocytes in the course of differenciation (10days)) of 68% and an activation at 3 ppm (HO-1; 3ppm, mature adipocytes (48h)) of 142%. It also gave an activation at 5 ppm (HO-1; 5ppm, mature adipocytes (48h)) of 233%, an inhibition at 3 ppm (IL6; [6]) of 33% and an inhibition at 5 ppm (IL6; [6]) of 31%. The inhibition at 3 ppm (IL6; 240 h, adipocytes in the course of differenciation (10days), read-out: IL6 % Var / control) was 49%, the inhibition at 5 ppm (IL6; 240 h, adipocytes in the course of differenciation (10days), p=0.09, read-out: IL6 % Var / control) was 50% and the Elastin (elastin [4]; cream and culture medium, NO stress (NOC-5) 24 hours) was 2.41 ± 1.40 UCA. The “Elastin % Variation” value (elastin [4]; versus Control NO (Reference 2)) was “+104%; p<0.01”, the activation at 5 ppm (elastin [5]) was 179% and the Fibromodulin (Fibromodulin; 5 ppm) was 51.4 ± 13.4 ng/106cell. For the same compound, the activation at 5 ppm (Fibromodulin; Homo sapiens, 48 h, read-out: Fibromodulin % Variation) was 268% and the “integrity of the dermis under elastase stress” value (elastase) was “retains its integrity”.
